Measurements: PMC12002301, “Discovery and functional characterization of a bombesin-type neuropeptide signaling system in an invertebrate” (Proceedings of the National Academy of Sciences of the …, 2025)
Entries after “also recorded” stand apart in the source; their conditions may differ. Ends that are not written are not given here.

Columns and labels:
[1] = system: everted cardiac stomach of A. rubens; test: In vivo retraction of everted cardiac stomach; design: species or system Asterias rubens; settings: 10 µL of 10^-4 M injected, words
Source text: Therefore, we performed experiments to investigate whether ArBN causes cardiac stomach retraction in A. rubens when injected in vivo. A description of the methods employed for investigation of in vivo effects of ArBN on the everted cardiac stomach of A. rubens is included in SI Appendix, SI Methods. […]
foot preparations. Having determined that ArBN had effects on preparations when tested at a high concentration (10^-6 M), then dose-response data for this peptide were obtained with final concentrations in the organ bath ranging from 10^-10 M to 10^-6 M. Two types of tests were performed when obtaining dose-response data for ArBN:
Test type 1: Here the preparation was washed thoroughly with seawater after adding ArBN to the organ at different concentrations. […]
The contraction effect of NGFFYamide (10^-7 M) or ACh (10^-5 M) was defined as 100% and the effects of ArBN were calculated as a percentage of the effect of NGFFYamide or ACh. […]
Analysis of the in vivo effects of ArBN on the everted cardiac stomach of A. rubens The physiological status of the starfish (~8 cm in diameter) tested was normalized by a 7-day starvation period. […] Then, the starfish was firstly injected with 10 µl of distilled water (negative control) and video recorded using a camera (Canon EOS 700D) for 7 min. Then, the same starfish was injected with NGFFYamide (positive control) or ArBN and video recorded for 7 min. […]

[2] = system: cardiac stomach preparations; settings: cited from earlier work
Protocol: Based on the expression of ArBNP in the cardiac stomach and tube feet of A. rubens, experiments were performed to investigate effects of ArBN on in vitro preparations of these organs. […] In experiments where cardiac stomach preparations were washed in between application of ArBN at different ... || Starfish (A. rubens) feed by everting their cardiac stomach out of the mouth over the digestible soft tissues of prey (e.g., mussels) and when feeding is completed, the stomach is retracted back into the central disk region of the body ([45]). […] Discovery of neuropeptides that exert excitatory or inhibitory effects on the cardiac stomach in vitro is of interest with respect to the unusual feeding behavior of A. rubens and other starfish. When starfish feed on bivalve mollusks such as mussels, they use the collective pulling power of tube feet loca ...

[3] = system: A. rubens feeding behavior; settings: vs water; cited from earlier work
Protocol: Based on the effects of NGFFYamide, ArSK/CCK1, and ArSK/CCK2 in triggering a process associated with termination of feeding behavior—cardiac stomach retraction—the effects of neuropeptides on feeding behavior of starfish have also been investigated. In these experiments starfish were starved and then presented with prey (a mussel) in a testing tank and the time taken to touch, enclose, and then consume the mussel was measured.

[4] = system: everted cardiac stomach of A. rubens; settings: cited from earlier work
Source text: Starfish (A. rubens) feed by everting their cardiac stomach out of the mouth over the digestible soft tissues of prey (e.g., mussels) and when feeding is completed, the stomach is retracted back into the central disk region of the body ([45]). […] Discovery of neuropeptides that exert excitatory or inhibitory effects on the cardiac stomach in vitro is of interest with respect to the unusual feeding behavior of A. rubens and other starfish. When starfish feed on bivalve mollusks such as mussels, they use the collective pulling power of tube feet loca ...

tube foot preparations = settings: cited from earlier work
Protocol: Based on the expression of ArBNP in the cardiac stomach and tube feet of A. rubens, experiments were performed to investigate effects of ArBN on in vitro preparations of these organs. […] In experiments where cardiac stomach preparations were washed in between application of ArBN at different ...

[5] = system: GPCR activated by BN-type neuropeptide; settings: Branchiostoma japonicum; cited from earlier work
Source text: Insights into the evolutionary history of BN-type neuropeptide signaling have been obtained from phylogenetic analysis of genome sequence data. A gene encoding a BN-type neuropeptide precursor was identified in the invertebrate chordate Branchiostoma floridae [subphylum Cephalochordata; ([4])] and, subsequently, experimental characterization of BN-type neuropeptide signaling in the cephalochordate Branchiostoma japonicum has been reported ([24]). A GPCR that is activated by the BN-type neuropeptide DKGQEHWQYGHWY-NH2 was identified. Furthermore, expression of the gene encoding this neuropeptide ...

fundic muscle of mice = settings: cited from earlier work
Source text: (§1) The functional characterization of ArBN in A. rubens provides insights into the comparative physiology of BN-type neuropeptide signaling.

BB1 receptor (NMB-R) = settings: mammals; cited from earlier work
Source text: BN-type neuropeptides exert their effects by binding to GPCRs. In mammals, NMB and GRP act as high affinity ligands for the BB1 receptor (NMB-R) and the BB2 receptor (GRP-R), respectively, and orthologs of these receptors have been identified in nonmammalian vertebrates ([20]–[24]). […] BN-type neuropeptides are involved in regulation of a variety of physiological and behavioral processes in mammals/vertebrates, including t ...

BB2 receptor (GRP-R) = system: BB2 receptor (GRP-R); design: method as in PMID 1707129, PMID 1848080, PMID 1671171, PMID 1655761, PMID 31593737; settings: mammals; cited from earlier work
[6] = system: intestinal smooth muscle from caimans; settings: cited from earlier work
Source text: as §1

NGFFYamide [positive control]
cardiac stomach retraction [1]: caused cardiac stomach retraction
effect on cardiac stomach preparations in vitro [2]: causes contraction of cardiac stomach preparations in vitro; also recorded: triggers cardiac stomach contraction in vitro; also recorded: cause cardiac stomach contraction in vitro
time taken to enclose a mussel [3]: increase in the time taken for starfish to touch and enclose a mussel
time taken to touch a mussel [3]: increase in the time taken for starfish to touch
cardiac stomach retraction in vivo [4]: retraction in vivo; also recorded: trigger retraction of the everted cardiac stomach

CC(=O)OCC[N+](C)(C)C [ACh, acetylcholine]
effect on tube foot preparations in vitro (tube foot preparations): causes contraction of tube foot preparations in vitro

DKGQEHWQYGHWY-NH2 [BN-type neuropeptide of the cephalochordate Branchiostoma japonicum]
GPCR activation [5]: activated

NMB: ranatensin-like peptide identified in the porcine spinal cord
contraction of fundic muscle (fundic muscle of mice): dose-dependent contraction
affinity for BB1 receptor (NMB-R) (BB1 receptor (NMB-R)): high affinity

GRP: BN-like peptide identified in the porcine gut (APVSVGGGTVLAKMYPRGNHWAVGHLM; ends and bridges not checked; UniProt P63153 24-50, looked up)
affinity for BB2 receptor (GRP-R) (BB2 receptor (GRP-R)): high affinity
contraction of fundic muscle (fundic muscle of mice): dose-dependent contraction

pQQRLGNQWAVGHLM-NH2 [BN, peptide first isolated from the skin of the frog Bombina bombina]
effect on intestinal smooth muscle [6]: excitatory effect
